This note sets out measurements from patent US9777034B2, “Modular synthesis of amphiphilic Janus glycodendrimers and their self-assembly into glycodendrimersomes” (The Trustees of The University of Pennsylvania, priority 2013, dated 2017).

Entries after “also recorded” stand apart in the source; their conditions may differ.

A short description of data set [1]: Cryo-TEM of assemblies formed in water. It counts as physicochemical.
The nature of data set [2]: Self-assembly by injection of THF or ethanol solution into water or buffer, analysed by DLS (size, polydispersity, stability in time). Particulars: for stability of glycodendrimersomes in buffer: PBS and HEPES buffers.
Procedure: The resulting assemblies were first analyzed by dynamic light scattering (DLS) for size, polydispersity (PDI), and stability in time. Assemblies stable in time were subsequently analyzed by cryogenic-transmission electron microscopy (cryo-TEM) to determine their structure.
Dynamic light scattering (DLS) was performed with a Malvern Instruments particle sizer (Zetasizer® Nano S, Malvern Instruments, UK) equipped with 4 mW He—Ne laser 633 nm and avalanche photodiode positioned at 175° to the beam and temperature controlled cuvette holder. Instrument parameters were determined automatically along with measurement times. Experiments were performed in triplicate. The Janus-dendrimer (1 mg) dissolved in 100 μL of THF was injected into 2 mL of ultrapure water or buffer followed by 5 seconds of vortex mixing. DLS experiments were measured at 25° C. Different final concentration of dendrimersomes in water was prepared from varying the starting concentration of THF solution with the same injection volume (100 μL) into constant 2.0 mL of ultrapure water or buffer.
Data set [3] can be described thus: Micropipette aspiration of giant glycodendrimersomes. Particulars: for behaviour in micropipette aspiration: giant vesicles prepared by hydration.

For “(3,4)2Et8G1-PE-TRZi-Man2 [Compound 49aa]”, the “structure of assemblies formed in water” value in data set [1] (injection into water, cryo-TEM) is given as “only soft glycodendrimersomes”. On the same count and under the same terms, as for “(3,4)12G1-PE-TRZi-3EOMan2 [Compound 51ab]”, the entry is “solid vesicles”. For “(3,5)2Et8G1-PE-TRZi-3EOLac2 [Compound 53ea]”, the “structure of assemblies formed in water” value in data set [1] (injection into water, cryo-TEM) is on record as “soft glycodendrimersomes”. The “stability of glycodendrimersomes in buffer” value (shortened to “stability … in buffer”) in data set [2] is reported as “stable in buffer”. For the substance “(3,4,5)12G1-PE-TRZi-3EOLac2 [Compound 53ca]”, the “structure of assemblies formed in water” value in data set [1] (injection into water, cryo-TEM) was “solid and polygonal glycodendrimersomes; also recorded: solid vesicles and solid lamellae”. The same measure, in the same setting: as for “(3,4)12G1-PE-TRZ-(mannose)2 [Compound 46ab]”, the entry is “sheet-like solid lamellae”. The same measure, in the same setting: as for “(3,4)2Ethyl8G1-PE-TRZ-(mannose)2 [Compound 48ab]”, the entry is “dendrimer aggregates”; as for “(3,4,5)12G1-PE-spacer-TRZ-(galactose)2 [Compound 50ca]”, “mixture of tubular and spherical glycodendrimersomes; also recorded: mixtures of tubular and soft spherical glycodendrimersomes and also bundles of tubular dendrimersomes”.

For the substance “(3,4)12G1-PE-TRZi-2EOMan2 [Compound 51ac]”, the “structure of assemblies formed in water” value in data set [1] (injection into water, cryo-TEM) is listed as “solid vesicles”. Consider “(3,5)12G1-PE-TRZi-3EOLac2 [Compound 53ba]”, for which the “structure of assemblies formed in water” value in data set [1] (injection into water, cryo-TEM) was “soft glycodendrimersomes”. Further, the “stability … in buffer” value in data set [2] is on record as “stable in buffer”.

With “(3,4)12G1-PE-TRZi-3EOGal2 [Compound 51aa]”, the “structure of assemblies formed in water” value in data set [1] (injection into water, cryo-TEM) is “solid lamellae”. For “(3,4)2Et8G1-PE-TRZi-3EOGal2 [Compound 49ab]”, the “structure of assemblies formed in water” value in data set [1] (injection into water, cryo-TEM) is listed as “only soft glycodendrimersomes”. Moreover, the “stability … in buffer” value in data set [2] is given as “stable in buffer”.

In the case of “(3,4,5)12G1-PE-spacer-TRZ-(1EO-lactose)2 [Compound 52dc]”, the “structure of assemblies formed in water” value in data set [1] (injection into water, cryo-TEM) is “glycodendrimersomes”.

Turning to “(3,4,5)2Et8G1-PE-TRZi-3EOGal2 [Compound 49cb]”, the “structure of assemblies formed in water” value in data set [1] (injection into water, cryo-TEM) is “only soft glycodendrimersomes”. In addition, in data set [2], the “stability … in buffer” value is “stable in buffer”. As to “(3,4,5)12G1-PE-TRZi-3EOMan2 [Compound 51cb]”, in data set [1] (0.5 mg/mL in water, annealing at 60° C. for 30 min), the “morphological change on annealing” value is on record as “transition from solid lamellae to solid vesicles”. In data set [1] (injection into water, cryo-TEM), the “structure of assemblies formed in water” value is “solid lamellae”. In the case of “(3,5)12G1-PE-spacer-TRZ-(mannose)2 [Compound 50bb]”, in data set [1] (injection into water, cryo-TEM), the “structure of assemblies formed in water” value is “dendrimer aggregates”.

As for “(3,4,5)2Et8G1-PE-TRZi-3EOLac2 [Compound 53fa]”, the “structure of assemblies formed in water” value in data set [1] (injection into water, cryo-TEM) was “soft glycodendrimersomes”. For the same substance, in data set [2], the “stability … in buffer” value was “stable in buffer”. In the case of “(3,4,5)12G1-PE-TRZ-(mannose)2 [Compound 46cb]”, the “structure of assemblies formed in water” value in data set [1] (concentrations higher than 0.5 mg/mL) was “polygonal glycodendrimersome”; in data set [1] (concentrations smaller than 0.5 mg/mL) it was “nano-tubular morphology is dominant”; in data set [1] (injection into water, cryo-TEM), “mixture of morphologies”. With “(3,4,5)12G1-PE-TRZi-1EOMan2 [Compound 51cd]”, the “structure of assemblies formed in water” value in data set [1] (injection into water, cryo-TEM) is recorded as “solid lamellae”.

Take “(3,4)12G1-PE-TRZ-4EOLac2 [Compound 52ad]”: the “structure of assemblies formed in water” value in data set [1] (injection into water, cryo-TEM) was “mixture of soft vesicles and bundles of rod-like micelles”.

On to “(3,5)2Et8G1-PE-TRZi-3EOGal2 [Compound 49bb]”, for which the “structure of assemblies formed in water” value in data set [1] (injection into water, cryo-TEM) is “only soft glycodendrimersomes”. Moreover, in data set [2] (10 mg/mL final concentration in water), the precipitation entry is given as “does not exhibit any sign of precipitation”. Also, the “stability … in buffer” value in data set [2] is “stable in buffer”. Also, the average vesicle size result in data set [2] (concentration above 10 mg/mL) is on record as “of the order of a micrometer”. The “stability of vesicles in water and buffer” value in data set [2] (concentrations higher than 10 mg/mL) was “stable in water and buffer”. Take “(3,4,5)12G1-PE-spacer-TRZ-(mannose)2 [Compound 50cb]”: the “structure of assemblies formed in water” value in data set [1] (injection into water, cryo-TEM) is “tubular glycodendrimersome bundles; also recorded: mixtures of tubular and soft spherical glycodendrimersomes and also bundles of tubular dendrimersomes”. With “(3,5)12G1-PE-TRZi-1EOMan2 [Compound 51bd]”, the symmetry of glycodendrimercubosome entry in data set [1] (1.0 mg/mL, Fourier transform of cryo-TEM) is on record as “Pn3m cubic symmetry”. The “structure of assemblies formed in water” value in data set [1] (injection into water, cryo-TEM) was “cubosomes”. On to “(3,4,5)12G1-PE-TRZi-2EOMan2 [Compound 51cc]”, for which, in data set [1] (injection into water, cryo-TEM), the “structure of assemblies formed in water” value is given as “solid lamellae”. As to “(3,4)12G1-PE-TRZ-1EOMan2 [Compound 51ad]”, in data set [1] (injection into water, cryo-TEM), the “structure of assemblies formed in water” value was “solid vesicles”. Besides, the “behaviour in micropipette aspiration” value in data set [3] is reported as “cannot be aspirated”. With (3,4)12G1-PE-TRZi-Man2 [Compound 47ab], the “structure of assemblies formed in water” value in data set [1] (injection into water, cryo-TEM) is “solid glycodendrimersomes”. For the substance “(3,4)2Et8G1-PE-TRZ1-Gal2 [Compound 49ac]”, in data set [1] (injection into water, cryo-TEM), the “structure of assemblies formed in water” value is “only soft glycodendrimersomes”. Turning to “(3,4,5)2Et8G1-PE-TRZi-Gal2 [Compound 49cc]”, in data set [1] (injection into water, cryo-TEM), the “structure of assemblies formed in water” value is reported as “dendrimer aggregates”. As to “(3,5)12G1-PE-TRZi-2EOMan2 [Compound 51bc]”, the “structure of assemblies formed in water” value in data set [1] (injection into water, cryo-TEM) is “soft vesicles”. Besides, in data set [3] (average of 11 (52dd) or 13 (51bc) vesicles), the “elastic modulus of membrane” value was found to be 163±30 dyne/cm. Also, the critical area strain in data set [3] (giant vesicles) is listed as 5-10%. Also, the “behaviour in micropipette aspiration” value in data set [3] is given as “fluid unilamellar membrane”. Consider “(3,5)2Et8G1-PE-TRZi-Man2 [Compound 49ba]”, for which, in data set [1] (injection into water, cryo-TEM), the “structure of assemblies formed in water” value was “mixtures of soft glycodendrimersomes and dendrimer aggregates; also recorded: coexistence of thick-wall glycodendrimersomes and large dendrimer aggregates”. Take “(3,4)2Et8G1-PE-TRZi-3EOLac2 [Compound 53da]”: the “structure of assemblies formed in water” value in data set [1] (injection into water, cryo-TEM) is “glycodendrimersomes and solid lamellae; also recorded: soft glycodendrimersomes”. The same measure, in the same setting: with “(3,4)12G1-PE-spacer-TRZ-(mannose)2 [Compound 50ab]” the entry was “solid lamellae and solid vesicles”; with “(3,4)2Ethyl8G1-PE-TRZ-(galactose)2 [Compound 48aa]”, “dendrimer aggregates”. Same read-out and setting: as for “(3,5)2Et8G1-PE-TRZi-Gal2 [Compound 49bc]”, the entry is “mixtures of dendrimer aggregates and cubosomes”; as for “((3,4)12G-PE-TRZ-(galactose)2 [Compound 46aa]”, “sheet-like solid lamellae”; as for “(3,4)12G1-PE-TRZi-3EOLac2 [Compound 53aa]”, “combination of soft glycodendrimersomes and rod-like micelles”.

As to “(3,4,5)12G1-PE-TRZ-(galactose)2 [Compound 46ca]”, the “structure of assemblies formed in water” value in data set [1] (injection into water, cryo-TEM) is on record as “solid lamellae”. For “(3,4,5)12G1-PE-TRZi-3EOGal2 [Compound 51ca]”, the “structure of assemblies formed in water” value in data set [1] (injection into water, cryo-TEM) is recorded as “solid lamellae”. Same read-out and setting: with “(3,4,5)2Et8G1-PE-TRZi-Man2 [Compound 49ca]” the entry was “mixtures of soft glycodendrimersomes and dendrimer aggregates; also recorded: formation of dendrimer aggregates is dominant with only few glycodendrimersomes being observed”. The same measure, in the same setting: as for “(3,5)12G1-PE-spacer-TRZ-(galactose)2 [Compound 50ba]”, the entry is “dendrimer aggregates”.

For “(3,4)12G1-PE-spacer-TRZ-(galactose)2 [Compound 50aa]”, the “structure of assemblies formed in water” value in data set [1] (injection into water, cryo-TEM) was “solid lamellae and solid vesicles”. Also, the “behaviour in micropipette aspiration” value in data set [3] was “cannot be aspirated”.
